From publication PMC8288134, “Synthesis, potential antitumor activity, cell cycle analysis, and multitarget mechanisms of novel hydrazones incorporating a 4-methylsulfonylbenzene scaffold: a molecular docking study” (Journal of Enzyme Inhibition and Medicinal Chemistry, 2021)

What was measured:
[1] = system: SR; assay: NCI antitumor screen (SRB); assay type: cell-based; settings: Homo sapiens, one dose 10 µM, read-out: Growth inhibition percentage (GI%)
[2] = system: HCC-2998; assay: NCI antitumor screen (SRB); assay type: cell-based; settings: Homo sapiens, one dose 10 µM, read-out: Growth inhibition percentage (GI%)
[3] = system: MALME-3M; assay: NCI antitumor screen (SRB); assay type: cell-based; settings: Homo sapiens, one dose 10 µM, read-out: Growth inhibition percentage (GI%)
[4] = system: M14; assay: NCI antitumor screen (SRB); assay type: cell-based; settings: Homo sapiens, one dose 10 µM, read-out: Growth inhibition percentage (GI%)
[5] = system: OVCAR-8; assay: NCI antitumor screen (SRB); assay type: cell-based; settings: Homo sapiens, one dose 10 µM, read-out: Growth inhibition percentage (GI%)
[6] = system: UO-31; assay: NCI antitumor screen (SRB); assay type: cell-based, human; settings: Homo sapiens; UO-31; one dose 10 µM; read-out: Growth inhibition percentage (GI%)
[7] = system: PC-3; assay: NCI antitumor screen (SRB); assay type: cell-based; settings: Homo sapiens, one dose 10 µM, read-out: Growth inhibition percentage (GI%)
[8] = target: EGFR (Homo sapiens, UniProt P00533); assay: biochemical; settings: read-out: IC50 EGFR Inhibition
Source text: (§1) In vitro luminescent EGFR tyrosine kinase assay using Kinase-Glo® MAX as a detection reagent, and In vitro HER2 tyrosine kinase assay using DP‐Glo™ reagent that measures ADP formed from a kinase reaction, this luminescent signal positively correlates with ADP amount and kinase activity. […]
(§2) 2.1.5. EGFR and Her2 assays
(§3) In vitro luminescent EGFR tyrosine kinase assay, using Kinase-Glo® MAX as a detection reagent, and In vitro HER2 tyrosine kinase assay, using DP‐Glo™ reagent that measures the adenosine diphosphate (ADP) formed from a kinase reaction, were performed; this luminescent signal positively correlates with ADP amount and kinase activity. In 17 μl of distilled water, 6 μl of Kinase assay buffer and 1 μl ATP and 1 μl PTK substrate were mixed (master mixture). In every well, mix 20 μl of the master mixture and 5 μl of Inhibitor solution (Test Inhibitor) for positive control, and use 5 μl of the same solution without inhibitor (Inhibitor buffer) as the blank solution; add 20 μl of diluted EGFR or Her2 enzyme and incubate at 30°C for 40 min. Add 50 μl of Kinase-Glo Max reagent to each well, cover the plate with aluminum foil and incubate the plate at room temperature for 15 min. Afterward, measure luminescence using the microplate reader. “Blank” value is subtracted from all readings. […]

[9] = target: HER2 (Homo sapiens, UniProt P04626); assay: biochemical; settings: read-out: IC50 HER2 Inhibition
Source text: as §1, §2, §3

[10] = system: CCRF-CEM; parameters: method as in https://dtp.cancer.gov/dtpstandard/dwindex/index.jsp; settings: reference drugs, ref https://dtp.cancer.gov/dtpstandard/dwindex/index.jsp; cited from earlier work
[11] = system: HL-60(TB); parameters: method as in https://dtp.cancer.gov/dtpstandard/dwindex/index.jsp; settings: reference drugs, ref https://dtp.cancer.gov/dtpstandard/dwindex/index.jsp; cited from earlier work
[12] = system: HOP-62; parameters: method as in https://dtp.cancer.gov/dtpstandard/dwindex/index.jsp; settings: reference drugs, ref https://dtp.cancer.gov/dtpstandard/dwindex/index.jsp; cited from earlier work
[13] = system: NCI-H226; parameters: method as in https://dtp.cancer.gov/dtpstandard/dwindex/index.jsp; settings: reference drugs, ref https://dtp.cancer.gov/dtpstandard/dwindex/index.jsp; cited from earlier work
[14] = system: NCI-H322M; parameters: method as in https://dtp.cancer.gov/dtpstandard/dwindex/index.jsp; settings: reference drugs, ref https://dtp.cancer.gov/dtpstandard/dwindex/index.jsp; cited from earlier work
[15] = system: COLO 205; parameters: method as in https://dtp.cancer.gov/dtpstandard/dwindex/index.jsp; settings: reference drugs, ref https://dtp.cancer.gov/dtpstandard/dwindex/index.jsp; cited from earlier work
[16] = system: HT29; parameters: method as in https://dtp.cancer.gov/dtpstandard/dwindex/index.jsp; settings: reference drugs, ref https://dtp.cancer.gov/dtpstandard/dwindex/index.jsp; cited from earlier work
[17] = system: SF-268; parameters: method as in https://dtp.cancer.gov/dtpstandard/dwindex/index.jsp; settings: reference drugs, ref https://dtp.cancer.gov/dtpstandard/dwindex/index.jsp; cited from earlier work
[18] = system: U251; parameters: method as in https://dtp.cancer.gov/dtpstandard/dwindex/index.jsp; settings: reference drugs, ref https://dtp.cancer.gov/dtpstandard/dwindex/index.jsp; cited from earlier work
[19] = system: SK-MEL-28; parameters: method as in https://dtp.cancer.gov/dtpstandard/dwindex/index.jsp; settings: reference drugs, ref https://dtp.cancer.gov/dtpstandard/dwindex/index.jsp; cited from earlier work
[20] = system: UACC-257; parameters: method as in https://dtp.cancer.gov/dtpstandard/dwindex/index.jsp; settings: reference drugs, ref https://dtp.cancer.gov/dtpstandard/dwindex/index.jsp; cited from earlier work
[21] = system: OVCAR-3; parameters: method as in https://dtp.cancer.gov/dtpstandard/dwindex/index.jsp; settings: reference drugs, ref https://dtp.cancer.gov/dtpstandard/dwindex/index.jsp; cited from earlier work
[22] = system: OVCAR-4; parameters: method as in https://dtp.cancer.gov/dtpstandard/dwindex/index.jsp; settings: reference drugs, ref https://dtp.cancer.gov/dtpstandard/dwindex/index.jsp; cited from earlier work
[23] = system: NCI/ADR-RES; parameters: method as in https://dtp.cancer.gov/dtpstandard/dwindex/index.jsp; settings: reference drugs, ref https://dtp.cancer.gov/dtpstandard/dwindex/index.jsp; cited from earlier work
[24] = system: CAKI-1; parameters: method as in https://dtp.cancer.gov/dtpstandard/dwindex/index.jsp; settings: reference drugs, ref https://dtp.cancer.gov/dtpstandard/dwindex/index.jsp; cited from earlier work
[25] = system: SN12C; parameters: method as in https://dtp.cancer.gov/dtpstandard/dwindex/index.jsp; settings: reference drugs, ref https://dtp.cancer.gov/dtpstandard/dwindex/index.jsp; cited from earlier work
[26] = system: TK-10; parameters: method as in https://dtp.cancer.gov/dtpstandard/dwindex/index.jsp; settings: reference drugs, ref https://dtp.cancer.gov/dtpstandard/dwindex/index.jsp; cited from earlier work
[27] = system: UO-31; parameters: method as in https://dtp.cancer.gov/dtpstandard/dwindex/index.jsp; settings: reference drugs, ref https://dtp.cancer.gov/dtpstandard/dwindex/index.jsp; cited from earlier work
[28] = system: MDA-MB-231/ATCC; parameters: method as in https://dtp.cancer.gov/dtpstandard/dwindex/index.jsp; settings: reference drugs, ref https://dtp.cancer.gov/dtpstandard/dwindex/index.jsp; cited from earlier work
[29] = system: HS 578 T; parameters: method as in https://dtp.cancer.gov/dtpstandard/dwindex/index.jsp; settings: reference drugs, ref https://dtp.cancer.gov/dtpstandard/dwindex/index.jsp; cited from earlier work
[30] = system: MDA-MB-468; parameters: method as in https://dtp.cancer.gov/dtpstandard/dwindex/index.jsp; settings: reference drugs, ref https://dtp.cancer.gov/dtpstandard/dwindex/index.jsp; cited from earlier work
[31] = system: leukaemia tumour cell lines; settings: cited from earlier work; for GI50: read-out: GI50 (subpanel average), reference drugs, ref https://dtp.cancer.gov/dtpstandard/dwindex/index.jsp; for CC50: read-out: LC50 (subpanel average), reference drugs, ref https://dtp.cancer.gov/dtpstandard/dwindex/index.jsp; for TGI (subpanel average): reference drugs, ref https://dtp.cancer.gov/dtpstandard/dwindex/index.jsp
[32] = system: colon cancer tumour cell lines; settings: cited from earlier work; for GI50: read-out: GI50 (subpanel average), reference drugs, ref https://dtp.cancer.gov/dtpstandard/dwindex/index.jsp; for CC50: read-out: LC50 (subpanel average), reference drugs, ref https://dtp.cancer.gov/dtpstandard/dwindex/index.jsp; for TGI (subpanel average): reference drugs, ref https://dtp.cancer.gov/dtpstandard/dwindex/index.jsp
[33] = system: melanoma tumour cell lines; settings: cited from earlier work; for GI50: read-out: GI50 (subpanel average), reference drugs, ref https://dtp.cancer.gov/dtpstandard/dwindex/index.jsp; for CC50: read-out: LC50 (subpanel average), reference drugs, ref https://dtp.cancer.gov/dtpstandard/dwindex/index.jsp; for TGI (subpanel average): reference drugs, ref https://dtp.cancer.gov/dtpstandard/dwindex/index.jsp
[34] = system: renal cancer tumour cell lines; settings: cited from earlier work; for GI50: read-out: GI50 (subpanel average), reference drugs, ref https://dtp.cancer.gov/dtpstandard/dwindex/index.jsp; for CC50: read-out: LC50 (subpanel average), reference drugs, ref https://dtp.cancer.gov/dtpstandard/dwindex/index.jsp; for TGI (subpanel average): reference drugs, ref https://dtp.cancer.gov/dtpstandard/dwindex/index.jsp

Sequence of HER2 (P04626 23-1255): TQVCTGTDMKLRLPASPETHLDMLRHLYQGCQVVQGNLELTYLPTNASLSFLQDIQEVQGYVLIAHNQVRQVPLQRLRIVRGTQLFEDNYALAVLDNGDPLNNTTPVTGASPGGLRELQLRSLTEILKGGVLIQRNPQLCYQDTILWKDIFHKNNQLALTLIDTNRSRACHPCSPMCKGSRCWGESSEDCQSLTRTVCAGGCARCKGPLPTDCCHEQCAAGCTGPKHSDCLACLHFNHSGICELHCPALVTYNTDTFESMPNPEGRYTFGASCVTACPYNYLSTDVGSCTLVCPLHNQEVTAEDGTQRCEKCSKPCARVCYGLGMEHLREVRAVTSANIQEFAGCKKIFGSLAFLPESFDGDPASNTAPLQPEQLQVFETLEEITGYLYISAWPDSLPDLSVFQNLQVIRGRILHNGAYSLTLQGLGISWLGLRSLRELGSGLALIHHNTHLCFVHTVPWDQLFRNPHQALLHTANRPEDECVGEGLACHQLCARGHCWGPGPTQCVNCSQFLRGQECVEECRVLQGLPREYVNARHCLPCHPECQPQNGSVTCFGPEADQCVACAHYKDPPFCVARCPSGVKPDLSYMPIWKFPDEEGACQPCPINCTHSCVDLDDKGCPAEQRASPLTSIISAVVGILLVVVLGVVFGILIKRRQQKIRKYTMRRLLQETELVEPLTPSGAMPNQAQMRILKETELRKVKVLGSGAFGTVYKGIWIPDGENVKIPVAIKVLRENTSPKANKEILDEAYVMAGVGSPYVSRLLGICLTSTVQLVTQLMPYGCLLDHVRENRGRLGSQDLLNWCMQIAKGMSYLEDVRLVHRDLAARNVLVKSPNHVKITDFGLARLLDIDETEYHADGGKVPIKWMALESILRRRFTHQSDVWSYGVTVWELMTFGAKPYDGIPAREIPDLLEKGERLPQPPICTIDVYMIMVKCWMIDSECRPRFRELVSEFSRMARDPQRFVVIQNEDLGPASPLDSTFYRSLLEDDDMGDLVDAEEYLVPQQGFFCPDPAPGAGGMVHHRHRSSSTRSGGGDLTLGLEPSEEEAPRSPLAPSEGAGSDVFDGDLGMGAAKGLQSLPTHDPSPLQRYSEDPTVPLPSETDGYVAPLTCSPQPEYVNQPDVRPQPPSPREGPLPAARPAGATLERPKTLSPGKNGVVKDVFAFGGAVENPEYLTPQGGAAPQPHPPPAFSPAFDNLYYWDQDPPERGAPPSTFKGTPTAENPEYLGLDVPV
Sequence of EGFR (P00533 25-1210): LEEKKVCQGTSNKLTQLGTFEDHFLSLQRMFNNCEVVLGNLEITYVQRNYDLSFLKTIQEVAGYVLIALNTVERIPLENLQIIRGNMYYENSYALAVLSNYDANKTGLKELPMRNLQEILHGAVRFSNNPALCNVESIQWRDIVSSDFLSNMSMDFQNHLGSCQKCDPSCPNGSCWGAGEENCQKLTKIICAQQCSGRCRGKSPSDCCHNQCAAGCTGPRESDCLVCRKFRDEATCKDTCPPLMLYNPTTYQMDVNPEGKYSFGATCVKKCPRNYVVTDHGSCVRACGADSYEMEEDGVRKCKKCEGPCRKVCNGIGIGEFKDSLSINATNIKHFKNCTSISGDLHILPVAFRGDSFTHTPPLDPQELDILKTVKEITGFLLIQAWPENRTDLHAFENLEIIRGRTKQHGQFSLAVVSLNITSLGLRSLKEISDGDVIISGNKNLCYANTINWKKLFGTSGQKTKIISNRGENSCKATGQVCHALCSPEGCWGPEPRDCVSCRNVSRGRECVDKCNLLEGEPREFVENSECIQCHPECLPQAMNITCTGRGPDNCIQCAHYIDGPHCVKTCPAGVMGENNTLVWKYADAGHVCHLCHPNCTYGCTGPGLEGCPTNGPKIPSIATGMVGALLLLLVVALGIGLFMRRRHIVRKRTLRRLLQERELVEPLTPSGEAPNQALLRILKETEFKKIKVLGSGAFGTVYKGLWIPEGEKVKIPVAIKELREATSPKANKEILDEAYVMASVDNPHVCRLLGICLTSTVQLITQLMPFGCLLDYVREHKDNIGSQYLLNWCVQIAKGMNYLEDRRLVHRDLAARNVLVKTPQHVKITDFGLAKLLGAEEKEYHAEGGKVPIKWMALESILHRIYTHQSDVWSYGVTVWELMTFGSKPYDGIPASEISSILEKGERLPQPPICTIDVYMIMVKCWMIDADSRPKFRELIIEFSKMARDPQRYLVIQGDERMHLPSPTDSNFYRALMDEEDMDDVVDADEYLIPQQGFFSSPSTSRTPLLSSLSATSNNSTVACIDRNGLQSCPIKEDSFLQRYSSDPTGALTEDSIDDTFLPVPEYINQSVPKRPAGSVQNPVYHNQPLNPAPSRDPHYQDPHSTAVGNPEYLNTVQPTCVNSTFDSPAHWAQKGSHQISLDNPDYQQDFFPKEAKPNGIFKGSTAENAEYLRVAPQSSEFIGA

SMILES | GI50 [10] [µM] | GI50 [11] [µM] | GI50 [12] [µM] | GI50 [13] [µM] | GI50 [14] [µM] | GI50 [15] [µM] | GI50 [16] [µM] | GI50 [17] [µM] | GI50 [18] [µM] | GI50 [19] [µM] | GI50 [20] [µM] | GI50 [21] [µM] | GI50 [22] [µM] | GI50 [23] [µM] | GI50 [24] [µM] | GI50 [25] [µM] | GI50 [26] [µM] | GI50 [27] [µM] | GI50 [28] [µM] | GI50 [30] [µM] | other results
CS(=O)(=O)c1ccc(C(=O)N/N=C/c2ccccc2O)cc1 [Compound 16] |  |  |  |  |  |  |  |  |  |  |  |  |  |  |  |  |  |  |  |  | inhibition at 10 µM [1]: 79.6%; inhibition at 10 µM [2]: 52.7%; inhibition at 10 µM [3]: 36.5%; inhibition at 10 µM [4]: 67.5%; inhibition at 10 µM [5]: 72.1%; inhibition at 10 µM [6]: 82%; inhibition at 10 µM [7]: 45.7%; IC50 [8]: 0.2 ± 0.07 µM; IC50 [9]: 0.13 ± 0.04 µM
C#Cc1cccc(Nc2ncnc3cc(OCCOC)c(OCCOC)cc23)c1 [Erlotinib, erlotinib] | 50.1 | 25.1 | 15.8 | 39.8 | 0.1 | 50.1 | 63.1 | 15.8 | 25.1 | 50.1 | 100 | 3.98 | 10 | 7.94 | 0.199 | 1.58 | 0.251 | 1 | 6.31 | 0.126 | GI50 [29]: 6.31 µM; GI50 [31]: 27.9 µM; CC50 [31]: > 100 µM; TGI (subpanel average) [31]: 96.57 µM; GI50 [32]: 51.7 µM; CC50 [32]: > 100 µM; TGI (subpanel average) [32]: c (Compounds showed values ≥ 100 µM); GI50 [33]: 23.7 µM; CC50 [33]: 93.3 µM; TGI (subpanel average) [33]: 77.89 µM; GI50 [34]: 2.46 µM; CC50 [34]: 89.2 µM; TGI (subpanel average) [34]: 42.59 µM
COc1cc2ncnc(Nc3ccc(F)c(Cl)c3)c2cc1OCCCN1CCOCC1 [Gefitinib, gefitinib] | 0.398 | 1 | 3.16 | 3.98 | 0.063 | 7.94 | 3.98 | 2.51 | 3.16 | 3.16 | 2.51 |  |  | 1.26 |  | 1.26 | 0.794 | 1.58 | 3.98 | 0.0126 | GI50 [29]: 7.94 µM; GI50 [31]: 2.56 µM; TGI (subpanel average) [31]: 12.07 µM; GI50 [32]: 5.23 µM; TGI (subpanel average) [32]: 18.47 µM; GI50 [33]: 3.68 µM; TGI (subpanel average) [33]: 12.49 µM; GI50 [34]: 1.41 µM; TGI (subpanel average) [34]: 12.50 µM
CNC(=O)c1cc(Oc2ccc(NC(=O)Nc3ccc(Cl)c(C(F)(F)F)c3)cc2)ccn1 [Sorafenib, sorafenib] | 1.99 |  | 1.99 | 1.99 | 2.51 | 1.99 | 1.99 | 2.51 | 1.99 | 2.51 | 1.99 | 3.16 | 3.16 | 2.51 | 3.16 | 2.51 | 3.98 | 2.51 | 1.26 | 1.99 | GI50 [31]: 1.91 µM; CC50 [31]: > 100 µM; TGI (subpanel average) [31]: 42.12 µM; GI50 [32]: 2.19 µM; CC50 [32]: 38.1 µM; TGI (subpanel average) [32]: 7.94 µM; GI50 [33]: 1.87 µM; CC50 [33]: 28.6 µM; TGI (subpanel average) [33]: 6.29 µM; GI50 [34]: 2.86 µM; CC50 [34]: 54.8 µM; TGI (subpanel average) [34]: 10.86 µM
CS(=O)(=O)c1ccc(C(=O)Nc2ccc(Cl)c(-c3ccccn3)c2)c(Cl)c1 [Vismodegib, vismodegib] | 31.6 | 31.6 | 79.4 | 50.1 | 100 | 39.8 | 25.1 | 39.8 | 50.1 | 39.8 | 50.1 | 50.1 | 39.8 | 31.6 | 79.4 | 39.8 | 63.1 | 31.6 | 19.9 | 19.9 | GI50 [29]: 79.4 µM
